Laboratory results taken from paper PMC8320897, “Inhibition of PI3K and MAPK pathways along with KIT inhibitors as a strategy to overcome drug resistance in gastrointestinal stromal tumors” (PLoS ONE, 2021).

Key:
[1] = system: GIST-T1/670; assay: Caspase 3/7 apoptosis assay; assay type: cell-based, human; conditions: GIST-T1/670, 48 h, single agent
Text: (§1) Inhibitor concentrations used were as mentioned in figure legends.
(§2) Fig 4 Combined Inhibition of KIT, PI3K and MAPK signaling pathways induces apoptosis in GIST cells. […] The data is represented as percent increase over untreated cells; each column represents mean of triplicates. […] (***p<0.0001); (**p<0.001); (*p<0.05).

[2] = system: GIST-T1; assay: Cell proliferation assay (Cell Counting Kit-8), drug screen; assay type: cell-based, human; conditions: Homo sapiens, GISTT1; cell viability after 72 hours of treatment; read-out: IC50 GIST-T1
[3] = system: p-Akt; assay: Immunoblot analysis of p-Akt; assay type: cell-based; conditions: 100 nM, 24 h, all cell lines tested, western blot
[4] = system: GIST-T1/670; assay: Cell proliferation assay (Cell Counting Kit-8); assay type: cell-based, human; conditions: for IC50: Homo sapiens, GISTT1, cell viability after 72 hours of treatment, read-out: IC50 T1/670
[5] = system: GIST882; assay: Cell proliferation assay (Cell Counting Kit-8), drug screen; assay type: cell-based; conditions: Homo sapiens, GIST882; cell viability after 72 hours of treatment; read-out: IC50 GIST882
[6] = system: GIST-T1/10R; assay: Cell proliferation assay (Cell Counting Kit-8); assay type: cell-based, human; conditions: Homo sapiens, GISTT1; cell viability after 72 hours of treatment; read-out: IC50 T1-10R
[7] = system: GIST-T1/10R; assay: Caspase 3/7 apoptosis assay; assay type: cell-based, human; conditions: 48 h, single agent
Text: as §1, §2

[8] = system: GIST-T1; assay: Caspase 3/7 apoptosis assay; assay type: cell-based, human; conditions: GIST-T1, 48 h, single agent
Text: as §1, §2

[9] = system: p-MAPK; assay: Immunoblot analysis of p-MAPK (p-ERK); assay type: cell-based; conditions: GIST-T1, IM 1 μM, 24 h, western blot
[10] = system: metastatic GIST; conditions: cited from earlier work
[11] = system: p-KIT; assay: Immunoblot analysis of p-KIT; assay type: cell-based; conditions: 100 nM, GIST882, 24 h, western blot
Experimental: (C) GIST882 cells were treated with the indicated inhibitor concentrations for 24 h and cell lysates were run on SDS-PAGE followed by immunoblotting to detect the indicated proteins. Data is representative of two independent experiments.

[12] = system: imatinib-resistant cell lines; assay: Caspase 3/7 apoptosis assay of screen hits; assay type: cell-based; conditions: sorafenib 500 nM; both imatinib-resistant cell lines
Experimental: (§3) Around 10,000 cells/well were plated in complete media in 96-well white flat-bottom plates and therapeutic compounds were added 24 hours later. Apoptosis was evaluated by measuring caspase-3/7 activity using Caspase-Glo 3/7 Assay System (Promega, WI, USA) after 24 and 48 h of treatment with inhibitors. […] Inhibitor concentrations used were as mentioned in figure legends.
(§4) The data is represented as % of control; each bar represents the mean of triplicates. […] Cells were treated with inhibitors at indicated concentrations for 24 h.

[13] = system: imatinib sensitive and resistant cell lines; assay: Caspase 3/7 apoptosis assay of screen hits; conditions: 24 h and 48 h; irinotecan 0.5 μM, sorafenib 500 nM, compound C 5 μM, triptolide 25 nM
Experimental: as §3, §4

[14] = system: GIST-T1/670; assay: Clonogenic (colony outgrowth) assay after drug removal; assay type: cell-based, human; conditions: single agent, 1 month treatment, 2 weeks drug-free
Experimental: Cells were treated with either IM (1 μM), SU (1 μM), RE (1 μM), GDC (500 nM), PD (500 nM), trametinib (500 nM), either alone or in combination for 1 month with replacement of fresh media with drug every week. Thereafter, cells were washed with PBS twice and fresh media without inhibitors was added and colonies were allowed to grow for 2 more weeks. The colonies were stained with crystal violet and counted. Untreated wells were not revived for extra 2 weeks.
After 1-month duration of treatment, cells were allowed to grow in drug-free media for two weeks before staining with crystal violet.

[15] = system: GIST cell lines; assay: Cell proliferation assay with trametinib; conditions: compared with PD, 72 h
[16] = system: MCF7; assay: Cell proliferation assay, control cell line; conditions: Homo sapiens, MCF7, 72 h, read-out: IC50 MCF7
[17] = system: MCF7; assay: Caspase 3/7 apoptosis assay of screen hits; assay type: cell-based; conditions: triptolide 25 nM
Experimental: as §3, §4

[18] = system: imatinib sensitive cell lines; assay: Cell proliferation assay; assay type: cell-based; conditions: 72 h
[19] = system: MRC5; assay: Cell proliferation assay, control cell line; conditions: Homo sapiens, MRC5, 72 h, read-out: IC50 MRC5
[20] = clinical trials in GIST patients

In the case of CS(=O)(=O)N1CCN(Cc2cc3nc(-c4cccc5[nH]ncc45)nc(N4CCOCC4)c3s2)CC1 [GDC-0941], the “induction of apoptosis (caspase 3/7 activity)” value [1] is reported as “did not induce apoptosis”, the IC50 [2] is reported as 300 nM and the “inhibition of phosphorylation of Akt” value [3] is reported as “inhibits phosphorylation of Akt”. The IC50 [4] was > 1000 nM, the IC50 [5] was 500 nM and the IC50 [6] was > 1000 nM.
With Cc1ccc(NC(=O)c2ccc(CN3CCN(C)CC3)cc2)cc1Nc1nccc(-c2cccnc2)n1 [Imatinib] the “induction of apoptosis (caspase activity)” value [7] was “did not show increase in caspase activity”, the “induction of apoptosis (caspase 3/7 activity)” value [1] was “did not induce apoptosis” and the “induction of apoptosis (caspase 3/7 activity)” value [8] was “did not induce apoptosis”. The “inhibition of downstream MAPK signaling” value [9] was 50%, the stable disease ([10]; KIT/PDGFRA-driven metastatic GIST, share of cases) was “approximately 85%” and the “time of treatment to secondary resistance mutations” value ([10]; prolonged exposure) was 18–24 months. The “inhibition of p-KIT” value [11] was “not sufficient to completely inhibit p-KIT”.
With CNC(=O)c1cc(Oc2ccc(NC(=O)Nc3ccc(Cl)c(C(F)(F)F)c3)cc2)ccn1 [Sorafenib] the IC50 [2] was 25 nM, the “increase in apoptosis (caspase 3/7 activity)” value [12] was 4–8 fold and the IC50 [4] was < 500 nM. For the same compound, the IC50 [5] was < 100 nM, the “overall progression free survival” value [10, 20] was < 6 mo and the overall response rate [10, 20] was < 10%. For the same compound, the IC50 [6] was 200 nM and the “cytotoxic effects (caspase 3/7 activity)” value [13] was ≥ 2 fold.
For CCN(CC)CCNC(=O)c1c(C)[nH]c(/C=C2\C(=O)Nc3ccc(F)cc32)c1C [Sunitinib], the “induction of apoptosis (caspase activity)” value [7] was “did not induce apoptosis”, the “induction of apoptosis (caspase 3/7 activity)” value [8] was “not effective” and the IC50 [2] was 25 nM. The “sensitivity of cell line (proliferation)” value ([4]; GIST-T1/670, S1A Fig) was “sensitive”, the IC50 [4] was > 10000 nM and the IC50 [5] was < 200 nM. For the same compound, the “time until resistance occurs” value ([10]; second-line / third-line therapy) was 6–12 months, the IC50 [6] was > 10000 nM and the “suppression of colony outgrowth” value [14] was “effective”.
For CC(=O)Nc1cccc(-n2c(=O)n(C3CC3)c(=O)c3c(Nc4ccc(I)cc4F)n(C)c(=O)c(C)c32)c1 [TR, trametinib], the “inhibition of cell proliferation as a single agent” value [15] was “better at inhibiting cell proliferation than PD”.
With CC(C)[C@]12O[C@H]1[C@@H]1O[C@]13[C@]1(O[C@H]1C[C@H]1C4=C(CC[C@@]13C)C(=O)OC4)[C@@H]2O [Triptolide] the IC50 [16] was > 10000 nM, the IC50 [2] was < 10 nM and the “cytotoxicity (caspase 3/7 activity) in MCF7” value [17] was “showed cytotoxicity”. The IC50 [4] was < 25 nM, the IC50 [5] was < 10 nM and the IC50 [6] was < 25 nM. For the same compound, the “cytotoxic effects (caspase 3/7 activity)” value [13] was ≥ 2 fold, the “concentration that inhibited the proliferation of imatinib sensitive cell lines” value [18] was < 0.5 µM and the IC50 [19] was 10 nM.
